The source of these data is patent publication US11168086B2, “Methods of synthesizing pyrazine compounds” (Hoffmann-La Roche Inc., priority 2015, dated 2021).

The test deals with HBV. The test can be described thus: HBV inhibition assay: anti-HBV activity in vitro in HepG2.2.15 cells (extracellular HBV DNA by qPCR). In kind it is cell-based. The following applies: Hepatitis B virus, 120 h, five days after compound treatment, extracellular HBV DNA in culture supernatant by qPCR, concentration at which HBV replication is inhibited by 50%. From the text: Example 441: HBV Inhibition Assays
Cell Line and Culture Conditions:
HepG2.2.15 is a stably-transfected cell line containing the HBV genome. It is derived from the hepatoblastoma cell line Hep G2 (American Type Culture Collection, ATCC® HB-8065™) by the published procedures described in reference: MA Selles et al. Proc. Natl. Acad. Sci. USA 1987, 84, 1005-1009. The cell line was maintained in Dulbecco's modified Eagle's medium (DMEM)-F12 medium supplemented with 10% fetal bovine serum, 100 U/mL penicillin, 100 μg/mL streptomycin, and 0.5 mg/mL of G418.
Anti-HBV Activity In Vitro:
HepG2.2.15 cells were seeded into 96-well plates (3×10^4 cells in 100 μL media per well) and incubated overnight at 37° C. The test compounds were serially half-log diluted in DMSO, then diluted 100 times in culture media. 100 μL diluted compounds were added into the plates to reach 0.5% final concentration of DMSO in every well. Five days after compound treatment, culture supernatant was collected for further analysis.
For quantitative PCR detection of extracellular HBV DNA, culture supernatant was processed by Proteinase K digestion. After heat inactivation of the enzyme, the samples were subjected to HBV DNA quantification by qPCR. The effective compound concentration at which
HBV replication is inhibited by 50% (EC50) was determined.
Turning to `C#Cc1cc(NC(=O)N2CCn3cnc(-c4ccc(F)cc4F)c3C2)ccc1F` [Example 134, 1-(2,4-difluorophenyl)-N-(3-ethynyl-4-fluoro-phenyl)-6,8-dihydro-5H-imidazo[1,5-a]pyrazine-7-carboxamide], the EC50 was 0.085 µM.

As to `O=C(Nc1ccc(F)c(Cl)c1)N1CCn2cnc(-c3ccc(F)cc3F)c2C1` [Example 135, N-(3-chloro-4-fluoro-phenyl)-1-(2,4-difluorophenyl)-6,8-dihydro-5H-imidazo[1,5-a]pyrazine-7-carboxamide], the response was half-maximal at 0.023 µM (EC50). The molecule `N#Cc1cc(NC(=O)N2CCn3cnc(-c4ccc(F)cc4F)c3C2)ccc1F` [Example 136, N-(3-cyano-4-fluoro-phenyl)-1-(2,4-difluorophenyl)-6,8-dihydro-5H-imidazo[1,5-a]pyrazine-7-carboxamide] returned an EC50 of 0.056 µM. Compared with the last molecule, the EC50 is about 2.4-fold higher. As for `O=C(Nc1cc(F)c(F)c(F)c1)N1CCn2cnc(-c3ccc(F)cc3F)c2C1` [Example 138, 1-(2,4-difluorophenyl)-N-(3,4,5-trifluorophenyl)-6,8-dihydro-5H-imidazo[1,5-a]pyrazine-7-carboxamide], a half-maximal effect (EC50) was put at 0.037 µM.

Regarding `C#Cc1cc(NC(=O)N2CCn3ncc(-c4ccc(F)cc4F)c3C2)ccc1F` [Example 139, 3-(2,4-difluorophenyl)-N-(3-ethynyl-4-fluoro-phenyl)-6,7-dihydro-4H-pyrazolo[1,5-a]pyrazine-5-carboxamide], a half-maximal effect (EC50) was put at 0.046 µM. The EC50 values of the last two molecules are within 1.5-fold of each other. As to `N#Cc1cc(NC(=O)N2CCn3ncc(-c4ccc(F)cc4F)c3C2)ccc1F` [Example 142, N-(3-cyano-4-fluoro-phenyl)-3-(2,4-difluorophenyl)-6,7-dihydro-4H-pyrazolo[1,5-a]pyrazine-5-carboxamide], the EC50 turned out to be 0.056 µM.

As for `O=C(Nc1ccc(F)c(C2CC2)c1)N1CCn2ncc(-c3ccc(F)cc3F)c2C1` [Example 150, N-(3-cyclopropyl-4-fluoro-phenyl)-3-(2,4-difluorophenyl)-6,7-dihydro-4H-pyrazolo[1,5-a]pyrazine-5-carboxamide], the EC50 worked out at 0.058 µM. Regarding `O=C(Nc1ccc(F)c(Cl)c1)N1CCn2nnc(-c3ccc(F)cc3F)c2C1` [Example 155, N-(3-chloro-4-fluoro-phenyl)-3-(2,4-difluorophenyl)-6,7-dihydro-4H-triazolo[1,5-a]pyrazine-5-carboxamide], the EC50 is 0.04 µM. The same measure for `Cc1cc(NC(=O)N2Cc3c(-c4ccc(F)cn4)cnn3CC2C)cc(F)c1F` (stereo not shown) [Example 156, N-(3,4-difluoro-5-methyl-phenyl)-3-(5-fluoro-2-pyridyl)-6-methyl-6,7-dihydro-4H-pyrazolo[1,5-a]pyrazine-5-carboxamide]: 0.025 µM; for `CC1Cn2ncc(-c3ccc(F)cn3)c2CN1C(=O)Nc1ccc(F)c(C2CC2)c1` (stereo not shown) [Example 157, N-(3-cyclopropyl-4-fluoro-phenyl)-3-(5-fluoro-2-pyridyl)-6-methyl-6,7-dihydro-4H-pyrazolo[1,5-a]pyrazine-5-carboxamide]: 0.083 µM. The same measure for `CC1Cn2ncc(-c3ccc(F)cn3)c2CN1C(=O)Nc1cc(F)c(F)c(Cl)c1` (stereo not shown) [Example 158, N-(3-chloro-4,5-difluoro-phenyl)-3-(5-fluoro-2-pyridyl)-6-methyl-6,7-dihydro-4H-pyrazolo[1,5-a]pyrazine-5-carboxamide]: 0.044 µM; for `Cc1cc(NC(=O)N2CCn3cnc(-c4ccc(F)cc4F)c3C2)cc(F)c1F` [Example 167, N-(3,4-difluoro-5-methyl-phenyl)-1-(2,4-difluorophenyl)-6,8-dihydro-5H-imidazo[1,5-a]pyrazine-7-carboxamide]: 0.015 µM. On to `O=C(Nc1ccc(F)c(Cl)c1)N1CCn2ncc(N3CCCC3=O)c2C1` [Example 170, N-(3-chloro-4-fluoro-phenyl)-3-(2-oxopyrrolidin-1-yl)-6,7-dihydro-4H-pyrazolo[1,5-a]pyrazine-5-carboxamide], for which it took 0.046 µM to reach a half-maximal effect (EC50).
